Patent US9695155B2, “Herbicidal substituted pyrimidinyloxy benzene compounds” (E. I. DU PONT DE NEMOURS AND COMPANY, priority 2013, dated 2017)

What was measured:
Assay in all cases: Test E preemergence
fall panicum = format: in vivo, Panicum dichotomiflorum; settings: for Panicum, Fall plant response rating: scale 0 to 100 (0 no effect, 100 complete control)
From the text: (§1) Seeds of plant species selected from corn (Zea mays), soybean (Glycine max), velvetleaf (Abutilon theophrasti), lambsquarters (Chenopodium album), wild poinsettia (Euphorbia heterophylla), palmer pigweed (Amaranthus palmeri), waterhemp (common waterhemp, Amaranthus rudis), surinam grass (Brachiaria decumbens), large (Lg) crabgrass (Digitaria sanguinalis), Brazilian crabgrass (Digitaria horizontalis), fall panicum (Panicum dichotomiflorum), giant foxtail (Setaria faberii), green foxtail (Setaria viridis), goosegrass (Eleusine indica), johnsongrass (Sorghum halepense), ragweed (common ragweed, Ambrosia elatior), barnyardgrass (Echinochloa crus-galli), sandbur (southern sandbur, Cenchrus echinatus), arrowleaf sida (Sida rhombifolia), Italian ryegrass (Lolium multiflorum), dayflower (Virginia (VA) dayflower, Commelina virginica), field bindweed (Convolvulus arvensis), morningglory (Ipomoea coccinea), nightshade (eastern black nightshade, Solanum ptycanthum), kochia (Kochia scoparia), yellow nutsedge (Cyperus esculentus), cocklebur (common cocklebur, Xanthium strumarium), smartweed (ladysthumb smartweed, and hairy beggarticks (Bidens pilosa), were planted into a silt loam soil and treated preemergence with test chemicals formulated in a non-phytotoxic solvent mixture which included a surfactant.
(§2) At the same time, plants from these crop and weed species and also horseweed (Canada horseweed, Conyza canadensis), waterhemp_RES1, (ALS & Triazine resistant common waterhemp, Amaranthus rudis), and waterhemp_RES2, (ALS & HPPD resistant common waterhemp, Amaranthus rudis) were planted in pots containing Redi-Earth® planting medium (Scotts Company, 14111 Scottslawn Road, Marysville, Ohio 43041) comprising spaghnum peat moss, vermiculite, wetting agent and starter nutrients were treated with postemergence applications of test chemicals formulated in the same manner. Plants ranged in height from 2 to 18 cm for postemergence treatments (1- to 4-leaf stage). Treated plants and controls were maintained in a greenhouse for 14 to 21 days, after which time all species were compared to controls and visually evaluated. Plant response ratings, summarized in Table E, are based on a scale of 0 to 100 where 0 is no effect and 100 is complete control. A dash (-) response means no test result.

barnyardgrass = format: in vivo, Echinochloa crus-galli; settings: for Barnyardgrass plant response rating: scale 0 to 100 (0 no effect, 100 complete control)
From the text: as §1, §2

ragweed = format: in vivo, Ambrosia elatior; settings: for Ragweed plant response rating: scale 0 to 100 (0 no effect, 100 complete control)
From the text: as §1, §2

large (Lg) crabgrass = format: in vivo, Digitaria sanguinalis; settings: for Crabgrass, Large plant response rating: scale 0 to 100 (0 no effect, 100 complete control)
From the text: as §1, §2

field bindweed = format: in vivo, Convolvulus arvensis; settings: for Field Bindweed plant response rating: scale 0 to 100 (0 no effect, 100 complete control)
From the text: as §1, §2

morningglory = format: in vivo, Ipomoea coccinea; settings: for Morningglory plant response rating: scale 0 to 100 (0 no effect, 100 complete control)
From the text: as §1, §2

goosegrass = format: in vivo, Eleusine indica; settings: for Goosegrass plant response rating: scale 0 to 100 (0 no effect, 100 complete control)
From the text: as §1, §2

palmer pigweed = format: in vivo, Amaranthus palmeri; settings: for Pigweed, Palmer plant response rating: scale 0 to 100 (0 no effect, 100 complete control)
From the text: as §1, §2

dayflower = format: in vivo, Commelina virginica; settings: for Dayflower, VA plant response rating: scale 0 to 100 (0 no effect, 100 complete control)
From the text: as §1, §2

arrowleaf sida = format: in vivo, Sida rhombifolia; settings: for Arrowleaf Sida plant response rating: scale 0 to 100 (0 no effect, 100 complete control)
From the text: as §1, §2

[1] = 8 g ai/ha, scale 0 to 100, 0 is no effect, 100 is complete control
[2] = 125 g ai/ha, scale 0 to 100, 0 no effect, 100 complete control
[3] = 8 g ai/ha, preemergence, scale 0 to 100, 0 is no effect, 100 is complete control
[4] = preemergence, 125 g ai/ha, scale 0 to 100, 0 no effect, 100 complete control
[5] = Preemergence, 62 g ai/ha, scale 0 to 100, 0 no effect, 100 complete control
[6] = 250 g ai/ha, scale 0 to 100, 0 no effect, 100 complete control
[7] = preemergence, 250 g ai/ha, scale 0 to 100, 0 no effect, 100 complete control

With FC(F)c1cccc(Oc2ncc(Cl)cn2)c1-n1cc(C(F)(F)F)cn1 [Compound 170] the “Plant response rating, Panicum, Fall” value (fall panicum; [1]) was 0, the “Panicum, Fall plant response rating” value (fall panicum; 31 g ai/ha) was 20 and the “Panicum, Fall plant response rating” value (fall panicum; 62 g ai/ha) was 98. The “Plant response rating, Panicum, Fall” value (fall panicum; [2]) was 100, the “Plant response rating, Barnyardgrass” value (barnyardgrass; [3]) was 0 and the “Barnyardgrass plant response rating” value (barnyardgrass; 16 g ai/ha, preemergence) was 0. The “Barnyardgrass plant response rating” value (barnyardgrass; 31 g ai/ha, preemergence) was 0, the “Barnyardgrass plant response rating” value (barnyardgrass; 62 g ai/ha, preemergence) was 35 and the “Plant response rating, Barnyardgrass” value (barnyardgrass; [4]) was 75. The “Plant response rating, Ragweed” value (ragweed; [1]) was 0, the “Ragweed plant response rating” value (ragweed; 31 g ai/ha) was 0 and the “Ragweed plant response rating” value (ragweed; 62 g ai/ha) was 5. For the same molecule, the “Plant response rating, Ragweed” value (ragweed; [2]) was 35, the “Plant response rating, Crabgrass, Large” value (large (Lg) crabgrass; [1]) was 0 and the “Crabgrass, Large plant response rating” value (large (Lg) crabgrass; 16 g ai/ha) was 0. The “Crabgrass, Large plant response rating” value (large (Lg) crabgrass; 31 g ai/ha) was 70, the “Crabgrass, Large plant response rating” value (large (Lg) crabgrass; 62 g ai/ha) was 98 and the “Plant response rating, Crabgrass, Large” value (large (Lg) crabgrass; [2]) was 100. For the same molecule, the “Plant response rating, Field Bindweed” value (field bindweed; [1]) was 0, the “Field Bindweed plant response rating” value (field bindweed; 16 g ai/ha) was 0 and the “Field Bindweed plant response rating” value (field bindweed; 31 g ai/ha) was 0. For the same molecule, the “Field Bindweed plant response rating” value (field bindweed; 62 g ai/ha) was 20, the “Plant response rating, Field Bindweed” value (field bindweed; [2]) was 30 and the “Plant response rating, Morningglory” value (morningglory; [1]) was 0. For the same molecule, the “Morningglory plant response rating” value (morningglory; 31 g ai/ha) was 10, the “Morningglory plant response rating” value (morningglory; 62 g ai/ha) was 35 and the “Plant response rating, Morningglory” value (morningglory; [2]) was 95. For the same molecule, the “Plant response rating, Goosegrass” value (goosegrass; [1]) was 0, the “Goosegrass plant response rating” value (goosegrass; 31 g ai/ha) was 40 and the “Goosegrass plant response rating” value (goosegrass; 62 g ai/ha) was 75. The “Plant response rating, Goosegrass” value (goosegrass; [2]) was 98, the “Plant response rating, Pigweed, Palmer” value (palmer pigweed; [1]) was 0 and the “Pigweed, Palmer plant response rating” value (palmer pigweed; 31 g ai/ha) was 95. The “Pigweed, Palmer plant response rating” value (palmer pigweed; 62 g ai/ha) was 100, the “Plant response rating, Pigweed, Palmer” value (palmer pigweed; [2]) was 100 and the “Plant response rating, Dayflower, VA” value (dayflower; [1]) was 0. The “Dayflower, VA plant response rating” value (dayflower; 16 g ai/ha) was 30, the “Dayflower, VA plant response rating” value (dayflower; 31 g ai/ha) was 30 and the “Dayflower, VA plant response rating” value (dayflower; 62 g ai/ha) was 80. The “Plant response rating, Dayflower, VA” value (dayflower; [2]) was 95, the “Plant response rating, Arrowleaf Sida” value (arrowleaf sida; [3]) was 0 and the “Arrowleaf Sida plant response rating” value (arrowleaf sida; 16 g ai/ha, preemergence) was 0. The “Arrowleaf Sida plant response rating” value (arrowleaf sida; 31 g ai/ha, preemergence) was 10, the “Arrowleaf Sida plant response rating” value (arrowleaf sida; 62 g ai/ha, preemergence) was 90 and the “Plant response rating, Arrowleaf Sida” value (arrowleaf sida; [4]) was 100.

Cc1cnc(Oc2cccc(C#N)c2-n2cc(C#N)cn2)nc1 [Compound 90] was tested, and the “Panicum, Fall plant response rating” value (fall panicum; 16 g ai/ha) was 0, the “Panicum, Fall plant response rating” value (fall panicum; 31 g ai/ha) was 0 and the “Panicum, Fall plant response rating” value (fall panicum; 62 g ai/ha) was 0. The “Plant response rating, Panicum, Fall” value (fall panicum; [2]) was 80, the “Barnyardgrass plant response rating” value (barnyardgrass; 16 g ai/ha, preemergence) was 0 and the “Barnyardgrass plant response rating” value (barnyardgrass; 31 g ai/ha, preemergence) was 0. For the same molecule, the “Plant response rating, Barnyardgrass” value (barnyardgrass; [5]) was 0, the “Plant response rating, Barnyardgrass” value (barnyardgrass; [4]) was 40 and the “Ragweed plant response rating” value (ragweed; 16 g ai/ha) was 0. The “Ragweed plant response rating” value (ragweed; 31 g ai/ha) was 50, the “Ragweed plant response rating” value (ragweed; 62 g ai/ha) was 50 and the “Plant response rating, Ragweed” value (ragweed; [2]) was 75. For the same molecule, the “Crabgrass, Large plant response rating” value (large (Lg) crabgrass; 16 g ai/ha) was 30, the “Crabgrass, Large plant response rating” value (large (Lg) crabgrass; 31 g ai/ha) was 40 and the “Crabgrass, Large plant response rating” value (large (Lg) crabgrass; 62 g ai/ha) was 75. For the same molecule, the “Plant response rating, Crabgrass, Large” value (large (Lg) crabgrass; [2]) was 98, the “Field Bindweed plant response rating” value (field bindweed; 16 g ai/ha) was 35 and the “Field Bindweed plant response rating” value (field bindweed; 31 g ai/ha) was 50. The “Field Bindweed plant response rating” value (field bindweed; 62 g ai/ha) was 70, the “Plant response rating, Field Bindweed” value (field bindweed; [2]) was 65 and the “Morningglory plant response rating” value (morningglory; 16 g ai/ha) was 0. The “Morningglory plant response rating” value (morningglory; 31 g ai/ha) was 0, the “Morningglory plant response rating” value (morningglory; 62 g ai/ha) was 20 and the “Plant response rating, Morningglory” value (morningglory; [2]) was 35. The “Goosegrass plant response rating” value (goosegrass; 16 g ai/ha) was 0, the “Goosegrass plant response rating” value (goosegrass; 31 g ai/ha) was 0 and the “Goosegrass plant response rating” value (goosegrass; 62 g ai/ha) was 5. The “Plant response rating, Goosegrass” value (goosegrass; [2]) was 50, the “Pigweed, Palmer plant response rating” value (palmer pigweed; 16 g ai/ha) was 0 and the “Pigweed, Palmer plant response rating” value (palmer pigweed; 31 g ai/ha) was 0. For the same molecule, the “Pigweed, Palmer plant response rating” value (palmer pigweed; 62 g ai/ha) was 0, the “Plant response rating, Pigweed, Palmer” value (palmer pigweed; [2]) was 65 and the “Dayflower, VA plant response rating” value (dayflower; 16 g ai/ha) was 0. For the same molecule, the “Dayflower, VA plant response rating” value (dayflower; 31 g ai/ha) was 0, the “Plant response rating, Dayflower, VA” value (dayflower; [2]) was 0 and the “Arrowleaf Sida plant response rating” value (arrowleaf sida; 16 g ai/ha, preemergence) was 20. The “Arrowleaf Sida plant response rating” value (arrowleaf sida; 31 g ai/ha, preemergence) was 50, the “Plant response rating, Arrowleaf Sida” value (arrowleaf sida; [5]) was 75 and the “Plant response rating, Arrowleaf Sida” value (arrowleaf sida; [4]) was 90.

With Cc1cnc(Oc2cccc(C#N)c2-n2cc(C(F)(F)F)cn2)nc1 [Compound 180] the “Panicum, Fall plant response rating” value (fall panicum; 31 g ai/ha) was 95, the “Panicum, Fall plant response rating” value (fall panicum; 62 g ai/ha) was 100 and the “Plant response rating, Panicum, Fall” value (fall panicum; [2]) was 100. For the same molecule, the “Plant response rating, Panicum, Fall” value (fall panicum; [6]) was 100, the “Barnyardgrass plant response rating” value (barnyardgrass; 31 g ai/ha, preemergence) was 20 and the “Barnyardgrass plant response rating” value (barnyardgrass; 62 g ai/ha, preemergence) was 98. The “Plant response rating, Barnyardgrass” value (barnyardgrass; [4]) was 100, the “Plant response rating, Barnyardgrass” value (barnyardgrass; [7]) was 100 and the “Ragweed plant response rating” value (ragweed; 31 g ai/ha) was 70. The “Ragweed plant response rating” value (ragweed; 62 g ai/ha) was 90, the “Plant response rating, Ragweed” value (ragweed; [2]) was 100 and the “Plant response rating, Ragweed” value (ragweed; [6]) was 100. The “Crabgrass, Large plant response rating” value (large (Lg) crabgrass; 31 g ai/ha) was 90, the “Crabgrass, Large plant response rating” value (large (Lg) crabgrass; 62 g ai/ha) was 98 and the “Plant response rating, Crabgrass, Large” value (large (Lg) crabgrass; [2]) was 100. The “Plant response rating, Crabgrass, Large” value (large (Lg) crabgrass; [6]) was 100, the “Field Bindweed plant response rating” value (field bindweed; 31 g ai/ha) was 10 and the “Field Bindweed plant response rating” value (field bindweed; 62 g ai/ha) was 25. For the same molecule, the “Plant response rating, Field Bindweed” value (field bindweed; [2]) was 65, the “Plant response rating, Field Bindweed” value (field bindweed; [6]) was 90 and the “Morningglory plant response rating” value (morningglory; 31 g ai/ha) was 0. For the same molecule, the “Morningglory plant response rating” value (morningglory; 62 g ai/ha) was 15, the “Plant response rating, Morningglory” value (morningglory; [2]) was 60 and the “Plant response rating, Morningglory” value (morningglory; [6]) was 100. For the same molecule, the “Goosegrass plant response rating” value (goosegrass; 31 g ai/ha) was 70, the “Goosegrass plant response rating” value (goosegrass; 62 g ai/ha) was 90 and the “Plant response rating, Goosegrass” value (goosegrass; [2]) was 98. For the same molecule, the “Plant response rating, Goosegrass” value (goosegrass; [6]) was 100, the “Pigweed, Palmer plant response rating” value (palmer pigweed; 31 g ai/ha) was 0 and the “Pigweed, Palmer plant response rating” value (palmer pigweed; 62 g ai/ha) was 0. For the same molecule, the “Plant response rating, Pigweed, Palmer” value (palmer pigweed; [2]) was 75, the “Plant response rating, Pigweed, Palmer” value (palmer pigweed; [6]) was 90 and the “Dayflower, VA plant response rating” value (dayflower; 31 g ai/ha) was 0. The “Dayflower, VA plant response rating” value (dayflower; 62 g ai/ha) was 35, the “Plant response rating, Dayflower, VA” value (dayflower; [2]) was 85 and the “Plant response rating, Dayflower, VA” value (dayflower; [6]) was 90. For the same molecule, the “Arrowleaf Sida plant response rating” value (arrowleaf sida; 31 g ai/ha, preemergence) was 15, the “Arrowleaf Sida plant response rating” value (arrowleaf sida; 62 g ai/ha, preemergence) was 30 and the “Plant response rating, Arrowleaf Sida” value (arrowleaf sida; [4]) was 70. The “Plant response rating, Arrowleaf Sida” value (arrowleaf sida; [7]) was 85.
